Reference: patent US20180296530A1, “METHOD FOR TREATING ATOPIC DERMATITIS” (priority 2015, published 2018)
“Also recorded” adds a separate entry of the source.

Columns and labels:
[1] = system: Patients aged 1 to 18 years with physician-diagnosed AD; assay: Clinical trial: polysomnography in a subgroup; type: in vivo, human; conditions: melatonin vs placebo, P>0.05
Protocol: Sleep was evaluated by actigraphy (Mini-Mitter Actiwatch; Philips-Respironics). Each participant wore the actigraphic device on the nondominant wrist for 3 consecutive nights starting 3 nights before each treatment period and for the last 3 nights of each treatment period. In a subgroup of patients who offered consent, polysomnography was performed on the night before the first day and on the last night of each treatment period.

[2] = Clinical trial: adverse events; type: in vivo, human; conditions: oral melatonin 3 mg/d, 4 weeks, children with AD
Protocol: Visits occurred at the start of the prescreening and on the first and last day of each treatment period, during which AD disease severity was assessed, blood and urine samples were collected, questionnaires evaluating subjective symptoms were filled out, and pill count and adverse events were recorded.

[3] = system: DNCB-induced AD mouse model; assay: Example 5: histological examination of skin (H&E, toluidine blue, anti-CD3); type: in vivo, Balb/c mice; conditions: for Cumulative histological scores: positive control 14.8 ± 2.4; for Hyperplasia, epidermis and follicular epithelium, slight to moderate/severe: incidence / Hyperplasia, sebaceous gland and hair follicle, dermis and subcutis, slight to moderate: incidence / Inflammation, neutrophil, lymphocyte and mast cell, epidermis, dermis and subcutis, minimal to severe/high: incidence / Infundibular hyperkeratosis, hair follicle, dermis, minimal to slight: incidence / Necrosis, epidermis, slight: incidence / Pustule, epidermis, slight: incidence / Serocellular crust/parakeratosis, epidermis, slight: incidence / Vacuolization, epidermis, minimal to slight: incidence: skin, Day 20, 5 mice
Protocol: (§1) The protocol for establishing an AD mouse model in this Example was modified from those described previously. Briefly, referring to FIG. 4, DNCB-induced AD mouse model was prepared by the repeated applications of 20 μL of 1% DNCB in acetone/olive oil (4:1) to the outer and inner surfaces of mouse ears and 100 μL of the same solution to the shaved back skin once on days 1, 2, and 3. Mice of Control group were treated with the identical volumes of vehicle.
(§2) The DNCB-sensitized mice were randomly assigned to one of three groups: DNCB (Positive control), DNCB+3% topical melatonin (Treatment: low-dose), DNCB+5% topical melatonin (Treatment: high-dose). Each group (including Control group) consisted of 5 mice. From days 9 to 19, sensitized mice were challenged by applying 0.5% DNCB to the skin surfaces. For the two groups treated with topical melatonin groups, 0.3 mg of topical melatonin ointment (3% or 5% melatonin in Vaseline) was given together with DNCB during the challenge period. For DNCB group, 0.3 mg of Vaseline was given together with DNCB during the challenge period. For Control group, 0.3 mg of Vaseline was given from days 9 to 19. This experiment was ended at Day 20.
At the end of the experiment (Day 20), all the experimental animals were subjected to euthanization by carbon dioxide and the skin samples were collected for subsequent immunological and histological examinations. The skin of each mouse were fixed with 10% neutral-buffered formalin, and embedded in paraffin. Then, 4-μm-thick sections were cut and transferred onto slides. Deparaffinized skin sections were stained with hematoxylin and eosin (H&E) before they were examined at 200× magnification for evaluation of edema and polymorphonuclear leukocytes (PMN) number. To detect mast cell infiltration, deparaffinized skin sections were stained with toluidine blue. Polyclonal rabbit antibody against CD3 was used to stain T cells. The numbers of mast cells and T cells per 10 high power fields (HPF) were counted.
Further, degree of histopathological lesions of skin from each mouse was graded from one to five depending on severity: 1=minimal (<1%); 2=slight (1-25%); 3=moderate (26-50%); 4=moderate/severe (51-75%); and 5=severe/high (76-100%).

IL-4 = assay: Example 5: dorsal skin IL-4 mRNA by RT-PCR; type: in vivo, Balb/c mice
Protocol: as §1
as §2, with “For DNCB group, 0.3 mg of Vaseline was given together with DNCB during the challenge period. For Control group, 0.3 mg of Vaseline was given from days 9 to 19. This experiment was ended at Day 20.” left out
Blood and dorsal skin of each mouse were collected on the last day of the experiment (Day 20) and stored at −80° C. until use. Serum IgE levels were measured using the ImmunoCAP fluorescence enzyme immunoassay (Phadia AB, Sweden) according to the manufacturer's instructions. The dorsal skin mRNA expression of the cytokines IL-4, IL-13, and IL-17 were measured by RT-PCR.

[4] = Treatment (high-dose): DNCB+5% topical melatonin, mean±SD, graded one to five
[5] = Treatment (high-dose): DNCB+5% topical melatonin
[6] = Treatment (low-dose): DNCB+3% topical melatonin, mean±SD, graded one to five
[7] = Treatment (low-dose): DNCB+3% topical melatonin

COc1ccc2[nH]cc(CCNC(C)=O)c2c1 [Melatonin, melatonin]
effect on the stages of sleep and limb movement [1]: did not have a significantly different effect
adverse events [2]: no adverse event was reported; also recorded: no adverse effect of medication was reported
pathology scoring vs DNCB group ([3]; 3% melatonin, p=0.04): significant improvement
number of anti-CD3 positive cells per 10 HPF ([3]; 3% topical melatonin compared with DNCB group, p=0.03): significantly reduced
pathology scoring vs DNCB group ([3]; 5% melatonin, p=0.02): significant improvement
number of anti-CD3 positive cells per 10 HPF ([3]; 5% topical melatonin compared with DNCB group, p=0.0007): significantly reduced
Hyperplasia, epidermis and follicular epithelium, slight to moderate/severe: lesion score [3, 4]: 2.0 ± 0.0
Hyperplasia, sebaceous gland and hair follicle, dermis and subcutis, slight to moderate: lesion score [3, 4]: 2.4 ± 0.5
Inflammation, neutrophil, lymphocyte and mast cell, epidermis, dermis and subcutis, minimal to severe/high: lesion score [3, 4]: 3.8 ± 0.4
Necrosis, epidermis, slight: lesion score [3, 4]: 0.4 ± 0.9
Serocellular crust/parakeratosis, epidermis, slight: lesion score [3, 4]: 2.0 ± 0.0
Vacuolization, epidermis, minimal to slight: lesion score [3, 4]: 0.8 ± 0.4
Cumulative histological scores ([3]; Treatment (high-dose): DNCB+5% topical melatonin, mean±SD): 11.4 ± 1.1
Hyperplasia, epidermis and follicular epithelium, slight to moderate/severe: incidence [3, 5]: 5/5
Hyperplasia, sebaceous gland and hair follicle, dermis and subcutis, slight to moderate: incidence [3, 5]: 5/5
Inflammation, neutrophil, lymphocyte and mast cell, epidermis, dermis and subcutis, minimal to severe/high: incidence [3, 5]: 5/5
Infundibular hyperkeratosis, hair follicle, dermis, minimal to slight: incidence [3, 5]: 0
Necrosis, epidermis, slight: incidence [3, 5]: 1/5
Pustule, epidermis, slight: incidence [3, 5]: 0
Serocellular crust/parakeratosis, epidermis, slight: incidence [3, 5]: 5/5
Vacuolization, epidermis, minimal to slight: incidence [3, 5]: 4/5
Hyperplasia, epidermis and follicular epithelium, slight to moderate/severe: lesion score [3, 6]: 2.4 ± 0.5
Hyperplasia, sebaceous gland and hair follicle, dermis and subcutis, slight to moderate: lesion score [3, 6]: 2.0 ± 0.0
Inflammation, neutrophil, lymphocyte and mast cell, epidermis, dermis and subcutis, minimal to severe/high: lesion score [3, 6]: 3.8 ± 0.4
Infundibular hyperkeratosis, hair follicle, dermis, minimal to slight: lesion score [3, 6]: 0.8 ± 0.8
Serocellular crust/parakeratosis, epidermis, slight: lesion score [3, 6]: 2.0 ± 0.0
Vacuolization, epidermis, minimal to slight: lesion score [3, 6]: 0.6 ± 0.5
Cumulative histological scores ([3]; Treatment (low-dose): DNCB+3% topical melatonin, mean±SD): 11.6 ± 1.8
Hyperplasia, epidermis and follicular epithelium, slight to moderate/severe: incidence [3, 7]: 5/5
Hyperplasia, sebaceous gland and hair follicle, dermis and subcutis, slight to moderate: incidence [3, 7]: 5/5
Inflammation, neutrophil, lymphocyte and mast cell, epidermis, dermis and subcutis, minimal to severe/high: incidence [3, 7]: 5/5
Infundibular hyperkeratosis, hair follicle, dermis, minimal to slight: incidence [3, 7]: 3/5
Necrosis, epidermis, slight: incidence [3, 7]: 0
Pustule, epidermis, slight: incidence [3, 7]: 0
Serocellular crust/parakeratosis, epidermis, slight: incidence [3, 7]: 5/5
Vacuolization, epidermis, minimal to slight: incidence [3, 7]: 3/5
mast cell infiltration (toluidine blue) ([3]; after melatonin treatment, FIG. 8): decreased
H&E staining of the skin ([3]; both the 3% and 5% melatonin treatment group, FIG. 6): improved epidermal hyperplasia and less infiltration of lymphocytes
skin mRNA expression of IL-4, dose-response (IL-4; 5% melatonin treatment compared with 3% melatonin treatment): decreased more
skin mRNA expression of IL-4 (IL-4; after topical melatonin treatment (3% or 5%), FIG. 11A): decreased
